The source of these data is US10877035B2, “Advanced drug development and manufacturing” (ICAGEN, LLC, priority 2006, dated 2020).

One assay has as its target T1, COX-1 (Canis lupus familiaris, UniProt Q8HZR1).
T1 sequence (Q8HZR1 28-603): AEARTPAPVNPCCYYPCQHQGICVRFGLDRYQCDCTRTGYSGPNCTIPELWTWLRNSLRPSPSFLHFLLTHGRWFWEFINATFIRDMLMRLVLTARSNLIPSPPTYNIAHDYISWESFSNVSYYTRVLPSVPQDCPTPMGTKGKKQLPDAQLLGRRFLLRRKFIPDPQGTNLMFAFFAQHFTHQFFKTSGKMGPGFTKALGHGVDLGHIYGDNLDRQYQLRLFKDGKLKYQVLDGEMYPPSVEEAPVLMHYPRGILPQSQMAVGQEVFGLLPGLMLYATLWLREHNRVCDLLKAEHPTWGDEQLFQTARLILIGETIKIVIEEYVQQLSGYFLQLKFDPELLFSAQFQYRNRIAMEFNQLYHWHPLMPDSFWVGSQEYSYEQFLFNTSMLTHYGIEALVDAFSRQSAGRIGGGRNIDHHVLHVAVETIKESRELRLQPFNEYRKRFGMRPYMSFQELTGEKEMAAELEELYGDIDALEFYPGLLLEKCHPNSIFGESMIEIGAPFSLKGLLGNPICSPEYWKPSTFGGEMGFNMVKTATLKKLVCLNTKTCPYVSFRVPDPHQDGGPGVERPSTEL
The settings on record: cited from earlier work.

The next assay deals with T2, COX-2 (Canis lupus familiaris, UniProt Q8SPQ9).
T2 sequence (Q8SPQ9 18-604): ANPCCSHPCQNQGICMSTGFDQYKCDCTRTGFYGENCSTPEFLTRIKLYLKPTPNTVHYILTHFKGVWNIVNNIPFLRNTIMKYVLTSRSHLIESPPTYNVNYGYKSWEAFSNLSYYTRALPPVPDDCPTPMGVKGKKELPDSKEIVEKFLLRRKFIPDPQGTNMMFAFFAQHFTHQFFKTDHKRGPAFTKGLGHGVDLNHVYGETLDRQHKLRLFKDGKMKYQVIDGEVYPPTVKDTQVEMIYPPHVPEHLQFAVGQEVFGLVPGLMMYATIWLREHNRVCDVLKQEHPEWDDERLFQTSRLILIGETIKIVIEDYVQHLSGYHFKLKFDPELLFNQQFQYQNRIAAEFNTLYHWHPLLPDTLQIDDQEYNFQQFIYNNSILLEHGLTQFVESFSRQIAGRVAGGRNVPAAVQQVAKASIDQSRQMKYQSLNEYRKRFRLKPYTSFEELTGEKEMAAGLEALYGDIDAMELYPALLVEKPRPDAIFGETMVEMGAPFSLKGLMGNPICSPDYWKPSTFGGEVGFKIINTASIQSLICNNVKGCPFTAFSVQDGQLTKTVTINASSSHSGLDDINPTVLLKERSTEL
The conditions noted are these: canine, relative to COX-1 column; cited from earlier work.

In assay [1] the target is T3, tetrameric avidin (Gallus gallus, UniProt P02701).
T3 construct: purchased Sigma-Aldrich
T3 sequence (P02701 25-152): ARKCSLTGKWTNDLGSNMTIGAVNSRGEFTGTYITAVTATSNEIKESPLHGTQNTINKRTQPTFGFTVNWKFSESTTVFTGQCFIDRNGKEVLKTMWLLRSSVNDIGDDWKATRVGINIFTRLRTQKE
Nature of the assay: RPM (x-ray fluorescence) measurement of sulfur in avidin-biotin complex versus avidin. It counts as binding. The settings on record: 500 micrograms avidin, 0.20 millimolar biotin, pH 8.0, after ultrafiltration. An excerpt:
Previous studies have shown that the ratio of sulfur in avidin-biotin:avidin is 19.5:16, or 1.22, see Green N. Mex. Purification of Avidin. Meth Enzymol. 1970, XVIII(A):414-417. […] We treated an avidin control sample identically. We used RPM to measure the sulfur content of the avidin-biotin complex and the avidin. We confirmed that the amount of avidin in each sample was identical using bicinchoninic acid protein assay kit (Pierce). As predicted, the avidin-biotin complex contained 1.2 times the sulfur than the avidin alone as measured by RPM.

In assay [2] the target is T3, tetrameric avidin. The settings on record: previous studies; cited from earlier work.
A further assay has as its target avidin (Gallus gallus, UniProt P02701). The conditions noted are these: 200 micrograms avidin and 0.20 millimolar LPA, same filtering. How it is done:
[…] We diluted this sample to 0.75 ml in TRIS buffer (pH 8.0), centrifuged for 2 hours at 7000 g, and repeated this process twice.

avidin, sequence (P02701 25-152): as above

Regarding `CC(C(=O)O)c1cccc(C(=O)c2ccccc2)c1` (stereo not drawn) [Ketoprofen], the “selectivity in favor of COX-1 versus COX-2” value on COX-1 (according to TABLE 3) is on record as 1 to 0.6. In addition, the “selectivity data, COX-1” value at COX-1 (canine, relative to COX-2 column) is listed as 1. Besides, the “selectivity data, COX-2” value at COX-2 is reported as “.6”.
As to `O=C(O)CCCC[C@@H]1SC[C@@H]2NC(=O)N[C@@H]21` [biotin], the “sulfur in avidin-biotin complex relative to avidin alone as measured by RPM” value on tetrameric avidin [1] came to 1.2 times. Also, at tetrameric avidin [2], the “ratio of sulfur in avidin-biotin:avidin” value is 1.22.
For the compound leucine phosphonic acid [LPA], the “phosphorus observed in control samples” value on avidin is “no phosphorus was observed”.
